Here are results for two molecules from US12564640B2, “Protein-antiviral compound conjugates” (priority 2020, dated 2026).

For orientation: IC50 means the concentration at which inhibition is half-maximal.

Test [1] has as its system influenza A/H3N2/HK68x31 virus. The test can be described thus: Antiviral efficacy assay, HK68x31. It counts as cell-based.
The subject of test [2] is influenza A/H1N1/PR8 virus. The test can be described thus: microbe, parasite or virus in culture. It is filed as cell-based, H1N1 A/Puerto Rico/08/1934 influenza virus. Conditions: for Fold increase over parental antibody: relative to mAb11729 of the same run.
The subject of test [3] is influenza A/H1N1/Cal09 virus. The test can be described thus: Antiviral efficacy assay, Cal09. It counts as cell-based. Conditions: relative to mAb11729.

Take `O=C(O)[C@H]1C2CCC(CC2)[C@@H]1Nc1nc(-c2c[nH]c3ncc(F)cc23)ncc1F` [VX-787, reference compound]: the IC50 was 7.05 nM in test [1] and 9.46 nM in test [2] (MDCK London cells, Runs 1-4). Also, the “Fold increase over parental antibody” value in test [2] came out at 3.32 fold.

B1: mAb11729: anti-hemagglutinin (anti-HA) monoclonal antibody, HCVR SEQ ID NO: 18, LCVR SEQ ID NO: 26 (antibody, V domains shown)
VH: QVQLVQSGAEVKKSGSSVKVSCKASGGTFSSYAISWVRQAPGQGLEWMGGIIPIFGTPSYAQKFQDRVTITTDESTSTVYMELSSLRSEDTAVYYCARQQPVYQYNMDVWGQGTTVTVSS
VL: DIQMTQSPSSLSASVGDRVTITCRASQGIRNNLGWYQQKPLKAPKRLIYAASSLQSGVPSRFSGSGSGTEFTLTISSLQPEDFATYYCLQYNNYPWTFGQGTKVEIK
Regarding B1, the “Fold increase over parental antibody” value in test [2] and in test [3] was 1.00 fold throughout.
